Where “and” joins values, the source holds several entries; their conditions need not be identical. Equal entries are not always repeated. Entries after “also recorded” stand apart in the source; their conditions may differ.
Legend:
5-HT3 receptor = conditions: cited from earlier work
[1] = tested on: scopolamine-treated cynomolgus monkeys; assay: Scopolamine-induced impairment of vsPAL task performance, treatment + scopolamine; type: in vivo, cynomolgus monkeys (Macaca Fasicularis); conditions: for Cohen's d / effect r: 4-stimuli; for mean (cohen's d calculations): eventual correct; for % Completion / Average Response Latency (Avg Rsp Lat) / Eventual Correct, 2 Stimuli / Eventual Correct, 3 Stimuli / Eventual Correct, 4 Stimuli / Eventual Correct, Overall Mean % Correct / Initial Correct, 3 Stimuli / Initial Correct, 4 Stimuli / Initial Correct, Overall Mean % Correct / Initial correct, 2 Stimuli: im + Scopolamine
[2] = Plasma pharmacokinetics in satellite animals (LC-MS/MS), 60 min after i.m. dose; conditions: for concentration at 60 min: cynomolgus monkey, in vivo, nM total compound in plasma from satellite animals
Experimental: For all compounds, plasma pharmacokinetic studies were conducted in a separate cohort of cynomolgus monkeys (N = 2–3 subjects per dose) before beginning vsPAL testing to help guide dose selection. Blood samples were obtained with the animals awake and sitting in a primate chair.
Plasma concentrations of test compounds were determined using LC-MS/MS assays. In brief, 50 μL plasma and sample containing compounds was extracted by protein precipitation method with 150 μL acetonitrile containing an internal standard. A 5 μL sample of supernatant was injected into the LC-MS/MS system. Analytes were separated by reversed phase chromatography and detection of each analyte was achieved through selected reaction monitoring mode of mass spectrometry. Samples were quantified by calculated peak area ratio of analyte and internal standard against a calibration curve.

human nAChR α7 = tested on: human nAChR α7; set-up: method as in PMID 27467081; conditions: intrinsic activity; HEK293 cells expressing human nAChR α7; cited from earlier work
[3] = 0.03 mg/kg + scopolamine vs vehicle+scopolamine, eventual accuracy
[4] = 0.1 mg/kg + scopolamine vs vehicle+scopolamine, eventual accuracy
[5] = 0.3 mg/kg + scopolamine vs vehicle+scopolamine, eventual accuracy
[6] = BMS-933043 0.03 mg/kg, group MEAN
[7] = BMS-933043 0.03 mg/kg, individual animals, 0.03 mg/kg
[8] = BMS-933043 0.1 mg/kg, group MEAN
[9] = BMS-933043 0.1 mg/kg, individual animals, 0.1 mg/kg
[10] = BMS-933043 0.3 mg/kg, group MEAN
[11] = BMS-933043 0.3 mg/kg, individual animals, 0.3 mg/kg
[12] = BMS-933043 1.0 mg/kg, group MEAN
[13] = BMS-933043 1.0 mg/kg, individual animals, 1 mg/kg
[14] = all doses of the study, for EVP-6124 study (1)
[15] = compound 0.03 mg/kg i.m. + Scopolamine
[16] = compound 0.10 mg/kg i.m. + Scopolamine
[17] = compound 0.30 mg/kg i.m. + Scopolamine
[18] = compound 1.00 mg/kg i.m. + Scopolamine

## c1cn(-c2cc(NC3=NC[C@@]4(CN5CCC4CC5)O3)ncn2)cn1 [BMS-933043, (2R)-N-(6-(1H-imidazol-1-yl)-4-pyrimidinyl)-4'H-spiro[4-azabicyclo[2.2.2]octane-2,5'-[1, 3]oxazol]-2'-amine]
5-HT3 receptor
  selectivity for nAChR α7 versus the 5-HT3 receptor: highly selective
[1]; [3]
  Cohen's d: 0.64
  effect r: 0.306
[1]; 0.03 mg/kg + scopolamine vs vehicle+scopolamine, eventual accuracy, listed as 933043
  Cohen's d: 0.643
[1]; [4]
  Cohen's d: 0.73
  effect r: 0.343
[1]; 0.1 mg/kg + scopolamine vs vehicle+scopolamine, eventual accuracy, listed as 933043
  Cohen's d: 0.7311
[1]; [5]
  Cohen's d: 1.2
  effect r: 0.51
[1]; 0.03, 0.1 and 0.3 mg/kg i.m., 4-stimuli condition
  effect on scopolamine-induced impairment of eventual accuracy: significantly ameliorated; also recorded: significantly reversed
[1]; 0.03 mpk + scop, 4-stimuli condition
  mean (cohen's d calculations): 81.7
[1]; 0.1 mpk + scop, 4-stimuli condition
  mean (cohen's d calculations): 81.4
[1]; 0.3 mpk + scop, 4-stimuli condition
  mean (cohen's d calculations): 90.0
[1]; [6]
  % Completion: 80.9%
  Average Response Latency (Avg Rsp Lat): 2008.1 ms
  Eventual Correct, 2 Stimuli: 100.0%
  Eventual Correct, 3 Stimuli: 88.6%
  Eventual Correct, 4 Stimuli: 81.7%
  Eventual Correct, Overall Mean % Correct: 89.8%
  Initial Correct, 3 Stimuli: 58.6%
  Initial Correct, 4 Stimuli: 38.3%
  Initial Correct, Overall Mean % Correct: 63.6%
  Initial correct, 2 Stimuli: 90.0%
[1]; BMS-933043 0.03 mg/kg, individual animals
  Eventual Correct, 2 Stimuli: 100.0%
[1]; [7]
  % Completion: 81.8% and 100.0% and 81.3% and 32.1% and 72.4% and 98.5%
  Average Response Latency (Avg Rsp Lat): 2181.5 ms and 1558.2 ms and 1198.4 ms and 2787.4 ms and 1505.0 ms and 2151.4 ms and 2675.1 ms
  Eventual Correct, 3 Stimuli: 90.0% and 100.0% and 50.0%
  Eventual Correct, 4 Stimuli: 100.0% and 90.0% and 40.0% and 80.0%
  Eventual Correct, Overall Mean % Correct: 96.7% and 76.7% and 100.0% and 75.0% and 90.0% and 93.3%
  Initial Correct, 3 Stimuli: 70.0% and 60.0% and 40.0% and 80.0% and 20.0%
  Initial Correct, 4 Stimuli: 40.0% and 10.0% and 80.0% and 20.0%
  Initial Correct, Overall Mean % Correct: 70.0% and 66.7% and 56.7% and 76.7% and 65.0% and 40.0%
  Initial correct, 2 Stimuli: 100.0% and 90.0% and 80.0%
[1]; [8]
  % Completion: 84.8%
  Average Response Latency (Avg Rsp Lat): 1958.7 ms
  Eventual Correct, 2 Stimuli: 100.0%
  Eventual Correct, 3 Stimuli: 98.6%
  Eventual Correct, 4 Stimuli: 81.4%
  Eventual Correct, Overall Mean % Correct: 93.3%
  Initial Correct, 3 Stimuli: 75.7%
  Initial Correct, 4 Stimuli: 35.7%
  Initial Correct, Overall Mean % Correct: 66.7%
  Initial correct, 2 Stimuli: 88.6%
[1]; BMS-933043 0.1 mg/kg, individual animals
  Eventual Correct, 2 Stimuli: 100.0%
[1]; [9]
  % Completion: 83.0% and 98.5% and 77.8% and 81.4% and 55.7% and 97.1% and 100.0%
  Average Response Latency (Avg Rsp Lat): 1783.8 ms and 1549.9 ms and 1223.3 ms and 2854.5 ms and 1899.4 ms and 1717.2 ms and 2683.0 ms
  Eventual Correct, 3 Stimuli: 90.0% and 100.0%
  Eventual Correct, 4 Stimuli: 90.0% and 80.0% and 70.0% and 60.0% and 100.0%
  Eventual Correct, Overall Mean % Correct: 93.3% and 90.0% and 86.7% and 100.0% and 96.7%
  Initial Correct, 3 Stimuli: 80.0% and 60.0% and 70.0% and 90.0% and 100.0%
  Initial Correct, 4 Stimuli: 50.0% and 10.0% and 40.0% and 30.0% and 70.0%
  Initial Correct, Overall Mean % Correct: 76.7% and 53.3% and 66.7% and 90.0% and 60.0%
  Initial correct, 2 Stimuli: 100.0% and 90.0% and 80.0%
[1]; [10]
  % Completion: 86.7%
  Average Response Latency (Avg Rsp Lat): 1774.3 ms
  Eventual Correct, 2 Stimuli: 100.0%
  Eventual Correct, 3 Stimuli: 94.3%
  Eventual Correct, 4 Stimuli: 90.0%
  Eventual Correct, Overall Mean % Correct: 94.3%
  Initial Correct, 3 Stimuli: 68.6%
  Initial Correct, 4 Stimuli: 45.0%
  Initial Correct, Overall Mean % Correct: 67.6%
  Initial correct, 2 Stimuli: 91.4%
[1]; BMS-933043 0.3 mg/kg, individual animals
  Eventual Correct, 2 Stimuli: 100.0%
[1]; [11]
  % Completion: 86.3% and 100.0% and 97.7% and 32.1% and 95.8% and 95.1%
  Average Response Latency (Avg Rsp Lat): 1690.5 ms and 1666.2 ms and 1269.7 ms and 2215.8 ms and 1344.9 ms and 1971.0 ms and 2262.1 ms
  Eventual Correct, 3 Stimuli: 100.0% and 60.0%
  Eventual Correct, 4 Stimuli: 80.0% and 100.0% and 90.0%
  Eventual Correct, Overall Mean % Correct: 93.3% and 100.0% and 80.0% and 96.7%
  Initial Correct, 3 Stimuli: 80.0% and 100.0% and 60.0% and 10.0% and 90.0%
  Initial Correct, 4 Stimuli: 60.0% and 40.0% and 50.0% and 30.0%
  Initial Correct, Overall Mean % Correct: 80.0% and 73.3% and 83.3% and 30.0% and 60.0%
  Initial correct, 2 Stimuli: 100.0% and 50.0% and 90.0%
[1]; [12]
  % Completion: 71.6%
  Average Response Latency (Avg Rsp Lat): 2029.0 ms
  Eventual Correct, 2 Stimuli: 100.0%
  Eventual Correct, 3 Stimuli: 97.1%
  Eventual Correct, 4 Stimuli: 65.7%
  Eventual Correct, Overall Mean % Correct: 87.6%
  Initial Correct, 3 Stimuli: 71.4%
  Initial Correct, 4 Stimuli: 41.4%
  Initial Correct, Overall Mean % Correct: 69.5%
  Initial correct, 2 Stimuli: 95.7%
[1]; BMS-933043 1.0 mg/kg, individual animals
  Eventual Correct, 2 Stimuli: 100.0%
[1]; [13]
  % Completion: 72.7% and 100.0% and 68.1% and 56.9% and 46.1% and 57.8%
  Average Response Latency (Avg Rsp Lat): 2028.1 ms and 1536.5 ms and 1283.2 ms and 2484.6 ms and 1934.3 ms and 2639.0 ms and 2297.3 ms
  Eventual Correct, 3 Stimuli: 90.0% and 100.0%
  Eventual Correct, 4 Stimuli: 70.0% and 100.0% and 40.0% and 50.0% and 30.0%
  Eventual Correct, Overall Mean % Correct: 86.7% and 96.7% and 80.0% and 83.3% and 76.7% and 90.0% and 100.0%
  Initial Correct, 3 Stimuli: 50.0% and 80.0% and 90.0% and 70.0%
  Initial Correct, 4 Stimuli: 40.0% and 60.0% and 20.0% and 30.0% and 80.0%
  Initial Correct, Overall Mean % Correct: 63.3% and 76.7% and 60.0% and 86.7%
  Initial correct, 2 Stimuli: 100.0% and 90.0%
[1]; all doses of the study
  Holm-Sidak Post-Hoc, Treatment+Scopolamine differs from Vehicle+Scopolamine: percent correct on initial attempt, 3-stimuli: n.s.
[1]; [14]
  Holm-Sidak Post-Hoc, Treatment+Scopolamine differs from Vehicle+Scopolamine: Choice Response Latency: n.s.
  Holm-Sidak Post-Hoc, Treatment+Scopolamine differs from Vehicle+Scopolamine: Percent Task Completed: n.s.
  Holm-Sidak Post-Hoc, Treatment+Scopolamine differs from Vehicle+Scopolamine: percent correct on initial attempt, 2-stimuli: n.s.
  Holm-Sidak Post-Hoc, Treatment+Scopolamine differs from Vehicle+Scopolamine: percent correct on initial attempt, 4 stimuli: n.s.
[1]; [15]
  Percent Correct on Initial Attempt (SEM), 2 stimuli: 90.0% (3.1%)
  Percent Correct on Initial Attempt (SEM), 3 stimuli: 58.6% (8.0%)
  Percent Correct on Initial Attempt (SEM), 4 stimuli: 38.3% (9.8%)
[1]; [16]
  Percent Correct on Initial Attempt (SEM), 2 stimuli: 88.6% (3.4%)
  Percent Correct on Initial Attempt (SEM), 3 stimuli: 75.7% (5.7%)
  Percent Correct on Initial Attempt (SEM), 4 stimuli: 35.7% (8.1%)
[1]; [17]
  Percent Correct on Initial Attempt (SEM), 2 stimuli: 91.4% (7.0%)
  Percent Correct on Initial Attempt (SEM), 3 stimuli: 68.6% (11.2%)
  Percent Correct on Initial Attempt (SEM), 4 stimuli: 45.0% (5.6%)
[1]; [18]
  Percent Correct on Initial Attempt (SEM), 2 stimuli: 95.7% (2.0%)
  Percent Correct on Initial Attempt (SEM), 3 stimuli: 71.4% (5.9%)
  Percent Correct on Initial Attempt (SEM), 4 stimuli: 41.4% (8.3%)
[1]; eventual accuracy, scopolamine vsPAL
  dose/exposure range across which efficacy was retained: ≥ 10 fold
[1]; large treatment effect sizes
  Cohen's D values at maximally efficacious doses: > 8
[2]; 0.03 mg/kg i.m., individual subjects
  nM total compound in plasma from satellite animals, 60 min: 16.6 nM and 18.4 nM
[2]; 0.10 mg/kg i.m., individual subjects
  nM total compound in plasma from satellite animals, 60 min: 60.9 nM and 70.1 nM
[2]; 0.30 mg/kg i.m., individual subjects
  nM total compound in plasma from satellite animals, 60 min: 145.0 nM and 280.0 nM and 133.0 nM
[2]; 1.00 mg/kg i.m., individual subjects
  nM total compound in plasma from satellite animals, 60 min: 1100.0 nM
[2]; 0.03 mg/kg, 0.03 mg/kg i.m., individual subjects
  concentration at 60 min: 20.1 nM
[2]; 0.03 mg/kg, 0.03 mg/kg i.m., mean
  concentration at 60 min: 18.4 nM
[2]; 0.1 mg/kg, 0.10 mg/kg i.m., individual subjects
  concentration at 60 min: 66.6 nM
[2]; 0.1 mg/kg, 0.10 mg/kg i.m., mean
  concentration at 60 min: 65.9 nM
[2]; 0.3 mg/kg, 0.30 mg/kg i.m., mean
  concentration at 60 min: 186 nM
[2]; 1 mg/kg, 1.00 mg/kg i.m., individual subjects
  concentration at 60 min: 739 nM
[2]; 1 mg/kg, 1.00 mg/kg i.m., mean
  concentration at 60 min: 920 nM
Human nAChR α7
  net charge relative to acetylcholine: 78%
  peak current response relative to acetylcholine: 24%
